Results: US20060270631A1, “Methods for the treatment and prevention of angiogenic diseases” (priority 2005, published 2006)

Legend:
Type in all cases: cell-based
human RECs [1] = assay: Cytotoxicity assay (sulforhodamine) toward human RECs; details: 12 or 14 hours, serum-starved human RECs
Experimental: FIG. 4. Toxicity of Compound II toward HRECs. Human RECs were serum-starved for 24 hours and then left untreated for 12 hours (▪) or incubated with 50 ng/mL VEGF (▴) for 14 hours in the presence of the indicated concentration of Compound II. These protocols were chosen to exactly match conditions in SK activity and proliferation experiments described below. After incubation, the percentages of cells that survived the treatment were determined. Values represent the mean i SD cell survival in triplicate samples in a typical experiment.
Cytotoxicity assays. Cells were grown to confluence in 96-well tissue culture plates and serum-starved for 24 hours as described above. Cells were then treated with varying concentrations of Compound II for 12 hours (to parallel the SK activity assays described above) or with varying concentrations of Compound II and 50 ng/mL of VEGF for 14 hours (to parallel the proliferation assays described below). Cell survival was determined using the sulforhodamine assay (Skehan et al., J Natl Cancer Inst 82: 1107 (1990)).
Since Compound II was the most efficacious inhibitor of SK in the RECs, this compound was used to characterize the biological effects of inhibiting SK in these cells. It was first necessary to determine the toxic effects of this compound toward cultures of RECs under conditions identical to subsequent signal studies. […]

human RECs [2] = assay: VEGF-stimulated proliferation of human RECs ([3H]thymidine incorporation); details: VEGF 50 ng/mL, 12 hours + 2 hours [3H]thymidine, serum-starved human RECs
Experimental: FIG. 6. Effects of Compound II on VEGF-stimulated proliferation of RECs. Human RECs were serum-starved for 24 hours and then left untreated or incubated with VEGF (50 ng/mL) in the presence of the indicated concentration (in μM) of Compound II for 12 hours. [3H]Thymidine was then added and the cultures were incubated an additional 2 hours. The amount of [^3H]thymidine incorporated into DNA was determined. Values represent the mean±SD of duplicate samples in a typical experiment.
Cell proliferation assay. Cells were grown to confluence in 24-well tissue culture plates and serum-starved overnight as described above. Cells were then treated with 50 ng/mL of VEGF and varying concentrations of Compound II for 12 hours. At that time, 16 μCi of [3H]thymidine was added to each well, and the cultures were incubated for an additional 2 hours. The media was then removed by aspiration, the cells were washed twice with cold PBS, and 0.8 mL of ice-cold 10% trichloroacetic acid was added to each well. […] The samples were incubated at 37° C. for 30 minutes, scraped into scintillation vials, and the amount of ^3H in the recovered genomic DNA was quantified by scintillation counting.
We next evaluated the effects of VEGF on the proliferation of human RECs by measuring the effects of the growth factor of the incorporation of [^3H]thymidine into the DNA of serum-starved cells. […]

E-selectin and VCAM-1 = assay: Western analysis of TNFα-induced E-selectin and VCAM-1 in human RECs; details: TNFα 100 ng/mL, 6 hours
Experimental: Western Blotting. Protein concentrations were determined using the fluorescamine assay (Bohlen et al., Arch Biochem Biophys 155: 213 (1973)) with bovine serum albumin as the standard. Samples were normalized for equal amounts of protein per lane (100 μg), separated by sodium dodecylsulfate-polyacrylamide gel electrophoresis and electrotransferred to nitrocellulose membranes. For SK analyses, membranes were blocked with 5% nonfat milk in Tris-buffered saline with Tween 20 and probed with an anti-SK rabbit polyclonal antibody at a 1:50 dilution, washed and incubated with […] antibodies conjugated to horseradish peroxidase (1 hr in 3% nonfat milk). The blots were then washed 4 times for 5 minutes at room temperature, developed with SuperSignal development reagents (Pierce Biotechnology, Inc., Rockford, Ill.) and exposed to Kodak XAR film. […]
Western analyses were conducted to evaluate the effects of Compound II on signaling proteins known to be regulated in endothelial cells by VEGF or TNFα. […] Cell lysates from cells treated with VEGF for 15 minutes were then analyzed for levels of phosphorylated ERK1/2 as a measure of signaling through the Ras-mediated proliferation pathway. Samples from cells treated with TNFα were analyzed for activation of NFκB, i.e. phosphoNFκB, and the down-stream proteins, cyclooxygenase-2 (Cox-2), E-selectin and VCAM-1. […]

With `Oc1ccc(Nc2nc(-c3ccc(Cl)cc3)cs2)cc1` [Compound II] the cell kill (human RECs [1]; concentrations up to approximately 16 μM) was less than 10%, the cell kill (human RECs [1]; concentrations up to at least 65 μM) was “less than 25%” and the “concentration blocking the mitogenic response to VEGF” value (human RECs [2]) was no less than 1.3 µM. The “TNFα-induced up-regulation of E-selectin expression” value (E-selectin and VCAM-1) was “completely blocked” and the “TNFα-induced up-regulation of VCAM-1 expression” value (E-selectin and VCAM-1) was “completely blocked”.
